Data set [1] relates to HIV-1 (IIIB). The data set is described as follows: Antiviral assay in MT-4 cells. It counts as cell-based. How it is done:
(§1) Compounds were tested in a high-throughput 384-well assay format for their ability to inhibit the replication of HIV-1 (IIIB) in MT-4 cells. Compounds were serially diluted (1:3) in DMSO on 384-well polypropylene plates and further diluted 200-fold into complete RPMI media (10% FBS, 1% P/S) using the Biotek Micro Flow and Labcyte ECHO acoustic dispenser. Each plate contained up to 8 test compounds, with negative (No Drug Control) and 5 μM AZT positive controls. MT-4 cells were pre-infected with 10 μL of either RPMI (mock-infected) or a fresh 1:250 dilution of HIV-1 IIIB concentrated virus stock. Infected and uninfected MT-4 cells were further diluted in complete RPMI media and added to each plate using a Micro Flow dispenser. After 5 days incubation in a humidified and temperature-controlled incubator (37° C.), Cell Titer Glo (Promega) was added to the assay plates and chemiluminescence read using an Envision plate-reader. EC50 values were defined as the compound concentration that causes a 50% decrease in luminescence signal, and were calculated using a sigmoidal dose-response model to generate curve fits.

The nature of data set [2]: Kinetic solubility analysis (CLND). It counts as physicochemical. To be noted: 24.2 °C, kinetic from dmso stock, from DMSO stocks, 1.0% DMSO, 24-hour incubation at ambient temperature, medium (0.1N HCl or PBS 7.4) not stated. As for the experimental part:
Kinetic Solubility Analysis (CLND)
0.1N HCl: Hydrochloric acid, 0.1N standardized solution.
1×PBS, 7.4: Phosphate Buffered Saline solution 10×, PBS 50 mL was added to approximately 450 mL HPLC grade H2O. The volume of the solution was then adjusted to 500 mL for a total dilution factor of 1:10 and a final PBS concentration of 1×. The pH of the final solution was measured and found to be 7.4.
Kinetic Solubility from DMSO Stocks: 100-fold dilutions of each DMSO stock solution were prepared in singleton by combining 3 μL of DMSO stock with 297 μL of the appropriate media in a Millipore solubility filter plate with a […] polycarbonate filter membrane using Hamilton Starlet liquid handling. The final DMSO concentration is 1.0% and maximum theoretical compound concentration is 100 μM (assuming stock concentration of 10 mM). The filter plate was sealed. Following 24-hour incubation at ambient temperature (24.2-27.5° C.), the samples were vacuum filtered and the filtrates were collected in a 96 well polypropylene plate for analysis. The collection plate was sealed for analysis.
Filtrates were injected into the nitrogen detector for quantification. The results are reported here in μM.
Calculation of Results: The equimolar nitrogen response of the detector was calibrated using standards which spanned the dynamic range of the instrument from […] nitrogen. The filtrates were quantified with respect to this calibration curve. The calculated solubility values were corrected for background nitrogen present in the DMSO and the media used to prepare the samples. All reported values for compounds containing adjacent nitrogen atoms in a ring structure should be increased by ˜25%. […] The solubility results presented assume that the samples were free of nitrogen containing impurities and were stable under the assay conditions.

Data set [3] in a line: Cytotoxicity assay in MT-4 cells. Format: cell-based. The conditions noted are these: human; uninfected MT-4 cells, 5 days incubation, Cell Titer Glo. How it is done: as §1, with “fits. Assays were performed as above except uninfected MT-4 cells were added to each well containing test compound. In addition, 10 μM puromycin was added to the last column of each assay plate to assess a base level of cytotoxicity.” for “fits.”
A general note: Cellular ATP, detected with luciferase, serves as a proxy for viable cell number.

[4] abbreviates: Human immunodeficiency virus 1, MT4, 120 h, HIV-1 IIIB replication in MT-4 cells, 5 days incubation, Cell Titer Glo, read-out: EC50.

Values after ≈ are worked out from the molar mass of the structure shown. Where two headings read alike, the source gives them in different places.

Broadly, the EC50 is the concentration needed to bring the measured effect to its halfway point. By kinetic solubility is commonly meant the concentration staying in solution when a stock, usually in DMSO, is diluted into the medium. Usually CC50 stands for the concentration giving 50% cytotoxicity. The low end stands for harm at low concentration, the high end for better tolerance by the cells.

Molecule `C#C[C@]1(CO[P@@](=O)(N[C@@H](C)C(=O)OCC(CC)CC)Oc2ccccc2)O[C@@H](n2cnc3c(N)nc(F)nc32)C[C@@H]1O` (single isomer, unassigned) [Compound 4] registered an EC50 in data set [1] (Human immunodeficiency virus 1, IIIB, MT4, 120 h) of 8 nM.
Molecule `C#C[C@]1(COC(=O)C(C)C)O[C@@H](n2cnc3c(N)nc(F)nc32)C[C@@H]1OC(=O)C(C)C` [Compound 1, (2R,3S,5R)-5-(6-amino-2-fluoro-9H-purin-9-yl)-2-ethynyl-2-((isobutyryloxy)methyl)tetrahydrofuran-3-yl isobutyrate] came in with a kinetic solubility at 24 h in data set [2] of 6.6 µM (≈ 2.86 µg/mL). Besides, half-maximal cytotoxicity in data set [3] (CC50 at 5 days) was put at 37300 nM. In data set [1] (setting [4]), the EC50 amounted to 7 nM.
Taken in the same sequence, the figures for `C#C[C@]1(CO)O[C@@H](n2cnc3c(NC(=O)OCCCCCCCCCCCCCC)nc(F)nc32)C[C@@H]1O` [Compound 2, Tetradecyl (9-((2R,4S,5R)-5-ethynyl-4-hydroxy-5-(hydroxymethyl)tetrahydrofuran-2-yl)-2-fluoro-9H-purin-6-yl)carbamate] were 1.2 µM (≈ 0.64 µg/mL), 13400 nM and 70 nM.
`C#C[C@]1(CO)O[C@@H](n2cnc3c(NC(=O)OCCCCCCCCCCCCCCCC)nc(F)nc32)C[C@@H]1O` [Compound 3, Hexadecyl (9-((2R,4S,5R)-5-ethynyl-4-hydroxy-5-(hydroxymethyl)tetrahydrofuran-2-yl)-2-fluoro-9H-purin-6-yl)carbamate] displayed a cytotoxic concentration (CC50) at 5 days in data set [3] of 11800 nM. In addition, the EC50 in data set [1] (setting [4]) was 60 nM.
Molecule `C#C[C@]1(COC(=O)c2ccccc2COC(=O)CCCCCCCCCCCCCCC)O[C@@H](n2cnc3c(N)nc(F)nc32)C[C@@H]1O` [Compound 5] came in with a solubility (kinetic) at 24 h in data set [2] of less than 1 µM. The same molecule showed a cytotoxic concentration (CC50) at 5 days in data set [3] greater than 50000 nM. In addition, the concentration giving a half-maximal response (EC50) in data set [1] (setting [4]) worked out at 8 nM.
Taken in the same sequence, the figures for `C#C[C@]1(CO)O[C@@H](n2cnc3c(N)nc(F)nc32)C[C@@H]1OC(=O)c1ccccc1COC(=O)CCCCCCCCCCCCCCC` [Compound 6, (2R,3S,5R)-5-(6-amino-2-fluoro-4,5-dihydro-9H-purin-9-yl)-2-ethynyl-2-(hydroxymethyl)tetrahydrofuran-3-yl 2-((palmitoyloxy)methyl)benzoate] were less than 1 µM, greater than 50000 nM and 29 nM.
Taken in the same sequence, the figures for `C#C[C@]1(COC(=O)c2ccccc2COC(=O)CCCCCCCCCCCCCCC)O[C@@H](n2cnc3c(N)nc(F)nc32)C[C@@H]1OC(=O)c1ccccc1COC(=O)CCCCCCCCCCCCCCC` [Compound 7, (2R,3S,5R)-5-(6-amino-2-fluoro-9H-purin-9-yl)-2-ethynyl-2-(((2-((palmitoyloxy)methyl)benzoyl)oxy)methyl)tetrahydrofuran-3-yl 2-((palmitoyloxy)methyl)benzoate] were 2 µM (≈ 2.08 µg/mL), greater than 50000 nM and greater than 500 nM.
Molecule `C#C[C@]1(COC(=O)CCCCCCCCCCCCC)O[C@@H](n2cnc3c(N)nc(F)nc32)C[C@@H]1O` [Compound 8, ((2R,3S,5R)-5-(6-amino-2-fluoro-9H-purin-9-yl)-2-ethynyl-3-hydroxytetrahydrofuran-2-yl)methyl tetradecanoate] gave a kinetic solubility at 24 h in data set [2] of less than 1 µM. The same molecule registered a CC50 at 5 days in data set [3] greater than 20200 nM. For the same molecule, the EC50 in data set [1] (setting [4]) came out at 3 nM.
Taken in the same sequence, the figures for `C#C[C@]1(CO)O[C@@H](n2cnc3c(N)nc(F)nc32)C[C@@H]1OC(=O)CCCCCCCCCCCCC` [Compound 9, (2R,3S,5R)-5-(6-amino-2-fluoro-9H-purin-9-yl)-2-ethynyl-2-(hydroxymethyl)tetrahydrofuran-3-yl tetradecanoate] were less than 1 µM, greater than 23000 nM and 4 nM.
The corresponding values for `C#C[C@]1(COC(=O)CCCCCCCCCCCCC)O[C@@H](n2cnc3c(N)nc(F)nc32)C[C@@H]1OC(=O)CCCCCCCCCCCCC` [Compound 10, (2R,3S,5R)-5-(6-amino-2-fluoro-9H-purin-9-yl)-2-ethynyl-2-((tetradecanoyloxy)methyl)tetrahydrofuran-3-yl tetradecanoate] are less than 1 µM, greater than 50000 nM and greater than 500 nM.
Taken in the same sequence, the figures for `C#C[C@]1(COC(=O)CCCCCCCCCCCCCCCCC)O[C@@H](n2cnc3c(N)nc(F)nc32)C[C@@H]1O` [Compound 11, ((2R,3S,5R)-5-(6-amino-2-fluoro-9H-purin-9-yl)-2-ethynyl-3-hydroxytetrahydrofuran-2-yl)methyl stearate] were less than 1 µM, greater than 41500 nM and 7 nM.
As to `C#C[C@]1(COC(=O)OCCCCCCCCCCCC)O[C@@H](n2cnc3c(N)nc(F)nc32)C[C@@H]1O` [Compound 12, ((2R,3S,5R)-5-(6-amino-2-fluoro-9H-purin-9-yl)-2-ethynyl-3-hydroxytetrahydrofuran-2-yl)methyl dodecyl carbonate], in data set [2], the solubility (kinetic) at 24 h is less than 1 µM. The cytotoxic concentration (CC50) at 5 days in data set [3] was determined as 17000 nM. Also, the EC50 in data set [1] (setting [4]) amounted to 6 nM.
For the molecule `C#C[C@]1(COC(=O)OCCCCCCCCCCCC)O[C@@H](n2cnc3c(N)nc(F)nc32)C[C@@H]1OC(=O)OCCCCCCCCCCCC` [Compound 13, ((2R,3S,5R)-5-(6-amino-2-fluoro-9H-purin-9-yl)-3-(((dodecyloxy)carbonyl)oxy)-2-ethynyltetrahydrofuran-2-yl)methyl dodecyl carbonate], in data set [2], the solubility (kinetic) at 24 h was less than 1 µM. The molecule also displayed a CC50 at 5 days in data set [3] of 5500 nM. In data set [1] (setting [4]), the EC50 is greater than 500 nM.
Take `C#C[C@]1(COC(=O)CC(C)(C)c2c(C)cc(C)cc2OC(C)=O)O[C@@H](n2cnc3c(N)nc(F)nc32)C[C@@H]1O` [Compound 14, ((2R,3S,5R)-5-(6-amino-2-fluoro-9H-purin-9-yl)-2-ethynyl-3-hydroxytetrahydrofuran-2-yl)methyl 3-(2-acetoxy-4,6-dimethylphenyl)-3-methylbutanoate]: in data set [2], the kinetic solubility at 24 h stood at 37 µM (≈ 20 µg/mL). In addition, in data set [3], the CC50 at 5 days was greater than 21600 nM. Also, the 50% effective concentration (EC50) in data set [1] (setting [4]) was determined as 4 nM.
The molecule `C#C[C@]1(CO)O[C@@H](n2cnc3c(N)nc(F)nc32)C[C@@H]1OC(=O)CC(C)(C)c1c(C)cc(C)cc1OC(C)=O` [Compound 15, (2R,3S,5R)-5-(6-amino-2-fluoro-9H-purin-9-yl)-2-ethynyl-2-(hydroxymethyl)tetrahydrofuran-3-yl 3-(2-acetoxy-4,6-dimethylphenyl)-3-methylbutanoate] registered a kinetic solubility at 24 h in data set [2] of 25.1 µM (≈ 13.5 µg/mL). The same molecule registered a CC50 at 5 days in data set [3] of 11800 nM. Moreover, the EC50 in data set [1] (setting [4]) came to 3 nM.
Taken in the same sequence, the figures for `C#C[C@]1(COC(=O)CC(C)(C)c2c(C)cc(C)cc2OC(C)=O)O[C@@H](n2cnc3c(N)nc(F)nc32)C[C@@H]1OC(=O)CC(C)(C)c1c(C)cc(C)cc1OC(C)=O` [Compound 16, ((2R,3S,5R)-3-((3-(2-acetoxy-4,6-dimethylphenyl)-3-methylbutanoyl)oxy)-5-(6-amino-2-fluoro-9H-purin-9-yl)-2-ethynyltetrahydrofuran-2-yl)methyl 3-(2-acetoxy-4,6-dimethylphenyl)-3-methylbutanoate] were less than 1 µM, 15700 nM and 10 nM.

Values taken from patent US11718637B2, “Prodrugs of 4′-C-substituted-2-halo-2′- deoxyadenosine nucleosides and methods of making and using the same” (Gilead Sciences, Inc., priority 2020, dated 2023).
